Positions count from the first letter of the chain named.
Tests used:
Assay in all cases: Saturation binding of WK(FITC)YMVm, flow cytometry on HEK293F cells
[1] = molecular target: T1, wild-type (WT) and mutant FPR2 (Homo sapiens, UniProt P25090, V105A); settings: FPR2 V105A
T1 construct: expressed in transfected cells; host or cells: HEK293F
T1 sequence (P25090 1-351 V105A): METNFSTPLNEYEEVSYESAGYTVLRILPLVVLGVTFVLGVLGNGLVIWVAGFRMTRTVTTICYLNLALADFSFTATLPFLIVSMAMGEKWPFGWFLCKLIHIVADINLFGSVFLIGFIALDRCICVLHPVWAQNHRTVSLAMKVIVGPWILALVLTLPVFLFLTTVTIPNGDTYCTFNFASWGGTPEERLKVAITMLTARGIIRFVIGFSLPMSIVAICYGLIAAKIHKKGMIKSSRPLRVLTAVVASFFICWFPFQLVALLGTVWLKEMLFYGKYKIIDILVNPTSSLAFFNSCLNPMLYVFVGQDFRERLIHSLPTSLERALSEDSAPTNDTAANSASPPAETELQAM
Experimental: (§1) Flag-tagged wild-type and mutant FPR2s were cloned into the pTT5 vector and expressed in HEK293F cells. The cells were harvested, and washed with Hanks’ Balanced Salt Solution (HBSS) buffer supplemented with 0.5% bovine serum albumin and 20 mM HEPES, pH 7.4. The cells were then resuspended in the same buffer to the final concentration of 1 × 10^6 cells per ml. The cell-surface expression was measured as mentioned above. […] Mean fluorescent intensity of each well was then read by a FCM (flow cytometry) reader (Millipore). […] For competitive binding of fMLFK, cells were plated in 96-well plates (100,000 cells per well), and incubated with WK(FITC)YMVm at 4 °C for 1 h. The following concentrations of WK(FITC)YMVm were used: 10 nM (wild type, L81^2.60F, E89G, and V105^3.32A), 30 nM (D281^7.32G), 40 nM (H102^3.29F, V160^4.60A, L268^ECL3A, N285^7.36A, and F292^7.43A), and 100 nM (L164^4.64A and T177A). Then increasing concentrations of fMLFK (100 nM–1 mM) were added, and incubated for another 1 h on ice. Mean fluorescent intensity values were measured by flow cytometry. Data were analyzed using Prism 7.0.

[2] = molecular target: T2, wild-type (WT) and mutant FPR2 (Homo sapiens, UniProt P25090, F292A); settings: FPR2 F292A
T2 construct: expressed in transfected cells; host or cells: HEK293F
T2 sequence (P25090 1-351 F292A): T1 sequence (P25090 1-351 V105A) with A105V, F292A
Experimental: as §1

[3] = molecular target: T3, wild-type (WT) and mutant FPR2 (Homo sapiens, UniProt P25090, N285A); settings: FPR2 N285A
T3 construct: expressed in transfected cells; host or cells: HEK293F
T3 sequence (P25090 1-351 N285A): T1 sequence (P25090 1-351 V105A) with A105V, N285A
Experimental: as §1

[4] = molecular target: T4, wild-type (WT) and mutant FPR2 (Homo sapiens, UniProt P25090, H102F); settings: FPR2 H102F
T4 construct: expressed in transfected cells; host or cells: HEK293F
T4 sequence (P25090 1-351 H102F): T1 sequence (P25090 1-351 V105A) with H102F, A105V
Experimental: as §1

[5] = molecular target: T5, wild-type (WT) and mutant FPR2 (Homo sapiens, UniProt P25090, E89G); settings: FPR2 E89G
T5 construct: expressed in transfected cells; host or cells: HEK293F
T5 sequence (P25090 1-351 E89G): T1 sequence (P25090 1-351 V105A) with E89G, A105V
Experimental: as §1

[6] = molecular target: T6, wild-type (WT) and mutant FPR2 (Homo sapiens, UniProt P25090, F5A); settings: FPR2 F5A
T6 construct: expressed in transfected cells; host or cells: HEK293F
T6 sequence (P25090 whole entry F5A): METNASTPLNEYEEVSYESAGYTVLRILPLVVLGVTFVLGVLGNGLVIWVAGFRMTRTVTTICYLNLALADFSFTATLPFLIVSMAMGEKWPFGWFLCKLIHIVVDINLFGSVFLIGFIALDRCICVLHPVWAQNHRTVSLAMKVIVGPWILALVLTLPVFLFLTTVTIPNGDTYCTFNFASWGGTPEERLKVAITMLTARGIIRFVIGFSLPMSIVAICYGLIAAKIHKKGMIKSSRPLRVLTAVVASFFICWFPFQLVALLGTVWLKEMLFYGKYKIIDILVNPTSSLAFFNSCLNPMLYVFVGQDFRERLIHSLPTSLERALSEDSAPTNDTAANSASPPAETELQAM
Experimental: as §1

Span (% of WT), saturation binding [1]: 68 ± 15 % of WT
Kd ([1]; mean ± s.e.m., n=4, SEM): 25.7 ± 7.5 nM
Span (% of WT), saturation binding [2]: 54 ± 14 % of WT
Kd ([2]; mean ± s.e.m., n=3, SEM): 42.5 ± 14.7 nM
Span (% of WT), saturation binding [3]: 85 ± 13 % of WT
Kd ([3]; mean ± s.e.m., n=4, SEM): 43.3 ± 15.3 nM
Span (% of WT), saturation binding [4]: 44 ± 4 % of WT
Kd ([4]; mean ± s.e.m., n=3, SEM): 43.5 ± 16.0 nM
Span (% of WT), saturation binding [5]: 134 ± 7 % of WT
Kd ([5]; mean ± s.e.m., n=3, SEM): 29.3 ± 6.0 nM
Span (% of WT), saturation binding [6]: 62 ± 7 % of WT
Kd ([6]; mean ± s.e.m., n=3, SEM): 15.1 ± 7.4 nM
Compound: CSCC[C@H](NC(=O)[C@H](Cc1ccc(O)cc1)NC(=O)[C@H](CCCCNC(=S)Nc1ccc2c(c1)C(=O)OC21c2ccc(O)cc2Oc2cc(O)ccc21)NC(=O)[C@@H](N)Cc1c[nH]c2ccccc12)C(=O)N[C@H](C(=O)N[C@H](CCSC)C(N)=O)C(C)C [WK(FITC)YMVm]
